IC50 data for 18 molecules are collected here from patent US8937181B2, “Benzenesulfonamide compounds and the use thereof” (Purdue Pharma L.P., priority 2006, dated 2015).

As a reminder, the IC50 is the concentration that inhibits the measured activity by half.

For assay [1], the target named is T1, N-type calcium channel (NTCC) (Homo sapiens, UniProt Q00975).
T1 construct: host or cells: IMR32 cells differentiated with dibutyryl cAMP and bromodeoxyuridine
Briefly: FLIPR calcium mobilization assay for N-type calcium channel. The following applies: calcium mobilization in vitro assay; differentiated IMR32 cells, 5 μM nitrendipine, 90 mM KCl. The assay is classed as cell-based. The protocol: Unless noted otherwise, cell culture reagents were purchased from Mediatech of Herndon, Md. IMR32 cells (American Type Culture Collection, ATCC, Manassas, Va.) were routinely cultured in growth medium consisting of minimum essential medium containing 10% fetal bovine serum (FBS, Hyclone, Logan, Utah), 100 U/mL penicillin, 100 μg/mL streptomycin, 2 mM L-glutamine, 1 mM sodium pyruvate, and 1×MEM non-essential amino acids. 80-90% confluent flasks of cells were differentiated using the following differentiation medium: Growth medium plus 1 mM dibutyryl cyclic AMP (Sigma, St. Louis, Mo.), and 2.5 μM bromodeoxyuridine (Sigma). Cells were differentiated for 8 days by replacing differentiation medium every 2-3 days.
FLIPR Calcium Mobilization Assay for N-type Calcium Channel.
One day prior to performing this assay, differentiated IMR32 cells were treated with 1× CellStripper, and seeded on poly-D-lysine-coated 96-well clear-bottom black plates (Becton Dickinson, Franklin Lakes, N.J.) at 200,000 cells/well. On the day of the assay, the cell plates were washed with IMR32 buffer (127 mM NaCl, 1 mM KCl, 2 mM MgCl2, 700 μM NaH2PO4, 5 mM CaCl2, 5 mM NaHCO3, 8 mM HEPES, 10 mM glucose, pH7.4), then pre-stimulated with KCl and loaded as follows: 0.05 mL of IMR32 buffer, 0.05 mL of each compound tested diluted in IMR32 buffer containing 20 μM nitrendipine (Sigma), and 0.1 mL KCl dissolved in IMR32 buffer, plus Fluo-4 were added (3 μM final concentration, Molecular Probes, Eugene, Oreg.). Final test compound concentrations ranged from about 846 pM to about 17 μM, final nitrendipine concentration was 5 μM, and final KCl concentration was 90 mM. After 1 hour, the cells were washed twice with 0.05 mL of each compound tested in nitrendipine-containing IMR32 buffer (no KCl or Fluo-4), and then replaced with 0.1 mL of each compound tested in nitrendipine-containing IMR32 buffer. Plates were then transferred to a Fluorimetric Imaging Plate Reader (FLIPR^96, Molecular Devices, Inc., Sunnyvale, Calif.) for assay. The FLIPR measured basal Fluo-4 fluorescence for 315 seconds (i.e., 5 minutes and 15 seconds), then added 0.1 mL KCl agonist dissolved in IMR32 buffer and measured fluorescence for another 45 seconds. Final test compound concentrations on the cells after FLIPR read ranged from about 846 pM to about 17 μM, final nitrendipine concentration was 5 μM, and final KCl concentration was 90 mM. Data were collected over the entire time course and analyzed using Excel, Graph Pad Prism (version 3.02, Graph Pad, San Diego, Calif.), or an in-house non-linear regression analysis software.

Assay [2] concerns the target T2, L-type calcium channel (LTCC) (Rattus norvegicus, UniProt P22002).
T2 construct: The 6.5 kb cDNA encoding the L-type calcium channel α1c subunit was cloned by PCR amplification from rat heart cDNA; expressed in transfected cells
Briefly: FLIPR calcium mobilization assay for L-type calcium channel. The assay is classed as cell-based. The following applies: calcium mobilization in vitro assay; HEK293 cells stably expressing recombinant rat LTCC subunits (α1c, α2δ, β1), 90 mM KCl. The protocol: Recombinant human embryonal kidney cells (HEK293, ATCC) stably transfected with either N-type calcium channel (NTCC) subunits (α1b, α2δ, and β3) or L-type calcium channel (LTCC) subunits (α1c, α2δ, and β1) were routinely cultured in growth medium consisting of Dulbecco's Modified Eagles Medium containing 10% FBS, 100 U/mL penicillin, 100 μg/mL streptomycin, 4 mM L-glutamine, 500 μg/mL geneticin (G418), 20 μg/mL Blasticidin S (InVivogen, San Diego, Calif.) and 500 μg/mL zeocin (InVivogen).
FLIPR Calcium Mobilization Assay for L-type Calcium Channel.
One day prior to performing this assay, HEK293 cells stably expressing recombinant rat L-type calcium channel (LTCC) subunits (α1c, α2δ, and β1) were trypsinized, then seeded on poly-D-lysine-coated 96-well clear-bottom black plates (Becton Dickinson, Franklin Lakes, N.J.) at 75,000 cells/well. On the day of the assay, the plates were washed with LTCC wash buffer (127 mM NaCl, 2 mM MgCl2, 700 μM NaH2PO4, 5 mM CaCl2, 5 mM NaHCO3, 8 mM HEPES, 10 mM glucose, pH7.4), then loaded with 0.1 mL of LTCC wash buffer containing Fluo-4 (3 μM final concentration, Molecular Probes, Eugene, Oreg.). After 1 hour, the cells were washed with 0.1 mL LTCC wash buffer and resuspended in 0.05 mL LTCC assay buffer (same composition as LTCC wash buffer). Plates were then transferred to a FLIPR^96 for assay. The FLIPR measured basal Fluo-4 fluorescence for 15 seconds, then added 0.05 mL of each compound tested diluted in LTCC assay buffer at final concentrations ranging from about 846 pM to about 17 μM. Fluo-4 fluorescence was then measured for 5 minutes. 0.1 mL KCl agonist dissolved in LTCC assay buffer was then added to the cells to produce a final concentration of 90 mM KCl, and fluorescence was measured for another 45 seconds. Data were collected over the entire time course and analyzed using Excel, Graph Pad Prism, or an in-house regression analysis software.
For orientation: A change in cytosolic calcium serves as a functional read-out for many receptors and channels.

T1 sequence (Q00975 whole entry): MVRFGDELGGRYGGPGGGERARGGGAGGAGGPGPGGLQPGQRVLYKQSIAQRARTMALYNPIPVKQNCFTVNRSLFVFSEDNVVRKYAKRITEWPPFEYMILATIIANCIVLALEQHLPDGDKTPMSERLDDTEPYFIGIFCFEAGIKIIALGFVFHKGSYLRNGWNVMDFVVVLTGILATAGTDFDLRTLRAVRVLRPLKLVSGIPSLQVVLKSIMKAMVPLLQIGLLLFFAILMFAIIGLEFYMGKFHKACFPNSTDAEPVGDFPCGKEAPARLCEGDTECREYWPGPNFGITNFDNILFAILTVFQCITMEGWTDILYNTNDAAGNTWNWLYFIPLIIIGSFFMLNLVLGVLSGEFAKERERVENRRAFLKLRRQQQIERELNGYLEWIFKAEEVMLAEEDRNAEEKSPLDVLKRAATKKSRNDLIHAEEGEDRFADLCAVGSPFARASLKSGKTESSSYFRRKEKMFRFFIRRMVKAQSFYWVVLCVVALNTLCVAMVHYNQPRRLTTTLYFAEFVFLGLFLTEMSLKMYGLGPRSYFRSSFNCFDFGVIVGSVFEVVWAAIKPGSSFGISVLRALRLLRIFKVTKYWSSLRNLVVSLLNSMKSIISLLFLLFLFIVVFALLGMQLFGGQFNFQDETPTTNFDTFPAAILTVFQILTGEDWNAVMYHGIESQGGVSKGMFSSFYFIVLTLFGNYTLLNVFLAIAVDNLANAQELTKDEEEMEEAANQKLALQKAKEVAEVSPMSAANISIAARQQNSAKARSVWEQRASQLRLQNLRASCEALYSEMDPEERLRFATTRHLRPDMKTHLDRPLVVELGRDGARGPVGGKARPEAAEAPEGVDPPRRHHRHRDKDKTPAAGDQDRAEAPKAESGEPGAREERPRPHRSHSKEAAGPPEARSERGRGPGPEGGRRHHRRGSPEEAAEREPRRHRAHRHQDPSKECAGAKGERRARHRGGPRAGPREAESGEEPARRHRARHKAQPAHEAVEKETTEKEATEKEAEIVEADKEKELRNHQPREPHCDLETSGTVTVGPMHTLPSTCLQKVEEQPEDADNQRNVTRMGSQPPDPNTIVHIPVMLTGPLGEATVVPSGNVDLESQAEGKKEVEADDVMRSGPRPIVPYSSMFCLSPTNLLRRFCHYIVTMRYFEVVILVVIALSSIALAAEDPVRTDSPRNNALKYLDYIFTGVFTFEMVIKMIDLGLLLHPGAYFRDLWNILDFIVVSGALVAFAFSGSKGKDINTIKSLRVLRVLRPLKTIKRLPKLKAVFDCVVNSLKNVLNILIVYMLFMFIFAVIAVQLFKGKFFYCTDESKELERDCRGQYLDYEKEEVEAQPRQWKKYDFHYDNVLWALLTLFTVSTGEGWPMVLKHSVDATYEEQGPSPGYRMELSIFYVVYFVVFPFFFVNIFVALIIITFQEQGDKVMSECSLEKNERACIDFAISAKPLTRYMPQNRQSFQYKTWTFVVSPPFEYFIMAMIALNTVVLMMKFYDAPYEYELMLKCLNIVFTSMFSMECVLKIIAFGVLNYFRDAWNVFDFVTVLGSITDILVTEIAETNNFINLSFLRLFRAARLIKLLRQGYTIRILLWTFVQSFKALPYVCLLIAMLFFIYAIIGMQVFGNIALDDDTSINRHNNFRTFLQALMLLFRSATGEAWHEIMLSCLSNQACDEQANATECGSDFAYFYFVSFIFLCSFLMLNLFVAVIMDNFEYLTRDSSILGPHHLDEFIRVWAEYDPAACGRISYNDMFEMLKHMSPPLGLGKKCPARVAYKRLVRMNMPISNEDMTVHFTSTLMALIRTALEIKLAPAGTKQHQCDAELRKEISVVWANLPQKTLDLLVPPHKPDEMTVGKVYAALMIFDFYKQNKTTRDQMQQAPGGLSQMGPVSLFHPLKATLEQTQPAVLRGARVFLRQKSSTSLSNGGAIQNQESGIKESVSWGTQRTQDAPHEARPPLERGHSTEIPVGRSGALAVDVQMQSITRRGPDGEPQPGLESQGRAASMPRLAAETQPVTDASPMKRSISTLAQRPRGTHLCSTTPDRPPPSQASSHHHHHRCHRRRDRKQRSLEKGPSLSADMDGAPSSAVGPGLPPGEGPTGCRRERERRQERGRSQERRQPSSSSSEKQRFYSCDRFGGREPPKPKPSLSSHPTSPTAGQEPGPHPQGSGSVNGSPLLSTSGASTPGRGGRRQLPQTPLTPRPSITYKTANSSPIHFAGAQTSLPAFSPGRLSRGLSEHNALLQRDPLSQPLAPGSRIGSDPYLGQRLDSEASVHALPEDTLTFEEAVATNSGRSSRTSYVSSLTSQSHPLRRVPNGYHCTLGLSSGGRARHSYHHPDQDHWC
T1 sequence (P54289 25-956 partner limits assumed): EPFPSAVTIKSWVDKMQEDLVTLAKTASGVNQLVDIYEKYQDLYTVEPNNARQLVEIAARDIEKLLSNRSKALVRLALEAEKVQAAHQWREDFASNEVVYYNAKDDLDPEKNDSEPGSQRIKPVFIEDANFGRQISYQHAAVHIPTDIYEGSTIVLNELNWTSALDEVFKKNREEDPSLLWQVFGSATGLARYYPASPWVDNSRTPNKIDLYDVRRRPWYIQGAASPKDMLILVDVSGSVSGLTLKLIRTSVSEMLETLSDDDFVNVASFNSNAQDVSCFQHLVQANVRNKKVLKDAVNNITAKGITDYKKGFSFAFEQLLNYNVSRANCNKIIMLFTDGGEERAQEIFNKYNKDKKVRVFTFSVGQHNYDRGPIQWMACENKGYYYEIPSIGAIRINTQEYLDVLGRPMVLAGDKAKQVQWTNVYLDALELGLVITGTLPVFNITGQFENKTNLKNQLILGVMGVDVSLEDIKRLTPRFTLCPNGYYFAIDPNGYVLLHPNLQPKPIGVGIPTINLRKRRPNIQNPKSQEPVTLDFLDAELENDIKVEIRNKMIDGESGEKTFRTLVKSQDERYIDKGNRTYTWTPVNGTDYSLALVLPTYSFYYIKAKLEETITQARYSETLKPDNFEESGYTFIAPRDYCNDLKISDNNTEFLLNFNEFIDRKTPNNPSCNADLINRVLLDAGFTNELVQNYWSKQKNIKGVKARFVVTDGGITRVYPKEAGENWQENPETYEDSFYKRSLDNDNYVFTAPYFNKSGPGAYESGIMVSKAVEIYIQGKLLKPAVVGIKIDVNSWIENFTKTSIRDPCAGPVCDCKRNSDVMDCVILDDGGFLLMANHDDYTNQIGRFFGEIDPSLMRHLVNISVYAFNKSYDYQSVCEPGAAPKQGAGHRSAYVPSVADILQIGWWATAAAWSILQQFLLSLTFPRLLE
T1 sequence (P54289 957-1103 partner limits assumed): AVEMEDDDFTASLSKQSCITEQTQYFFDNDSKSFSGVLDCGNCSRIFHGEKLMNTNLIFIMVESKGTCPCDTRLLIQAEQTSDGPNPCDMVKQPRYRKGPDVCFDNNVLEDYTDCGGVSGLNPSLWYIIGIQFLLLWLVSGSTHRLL
T1 sequence (P54284 whole entry partner): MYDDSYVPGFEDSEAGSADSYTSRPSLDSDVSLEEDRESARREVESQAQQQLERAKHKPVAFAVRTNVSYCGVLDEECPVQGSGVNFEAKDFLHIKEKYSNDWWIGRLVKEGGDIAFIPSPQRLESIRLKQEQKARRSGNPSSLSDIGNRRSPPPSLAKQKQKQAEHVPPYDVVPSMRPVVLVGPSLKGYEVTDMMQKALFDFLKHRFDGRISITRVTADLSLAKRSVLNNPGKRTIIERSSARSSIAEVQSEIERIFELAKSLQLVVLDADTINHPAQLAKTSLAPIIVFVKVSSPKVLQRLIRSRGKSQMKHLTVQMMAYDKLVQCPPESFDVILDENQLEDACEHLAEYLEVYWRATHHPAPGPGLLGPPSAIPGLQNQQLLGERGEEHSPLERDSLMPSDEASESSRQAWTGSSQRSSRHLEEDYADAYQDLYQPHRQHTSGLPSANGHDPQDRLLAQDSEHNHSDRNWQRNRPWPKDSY

For `CC(C)N(C1CCN(C(=O)CN2Cc3ccccc3C2)CC1)S(=O)(=O)c1cccc(C(F)(F)F)c1` [Compound 25d, N-[1-(2-1,3-Dihydro-isoindol-2-yl-acetyl)-piperidin-4-yl]-N-isopropyl-3-trifluoromethylbenzenesulfonamide], the IC50 in assay [1] was determined as 1.14 µM.

In the case of `CC(C)N(C1CCN(C(=O)CN2CCC(F)(F)C2)CC1)S(=O)(=O)c1cccc(C(F)(F)F)c1` [Compound 25f, N-{1-[2-(3,3-Difluoro-pyrrolidin-1-yl)-acetyl]-piperidin-4-yl}-N-isopropyl-3-trifluoromethylbenzenesulfonamide], the values for the IC50 in assay [2] and in assay [1] were 7.81 µM and 3.98 µM, respectively. Turning to `O=C(CNC1CCCC1)N1CCC(N(C2CC2)S(=O)(=O)c2cccc(C(F)(F)F)c2)CC1` [Compound 25c, N-[1-(2-Cyclopentylamino-acetyl)-piperidin-4-yl]-N-cyclopropyl-3-trifluoromethylbenzenesulfonamide], the IC50 is over 20 µM in assay [2] and 0.28 µM in assay [1]. As for `O=C(c1cccnc1)N1CCC(N(C2CC2)S(=O)(=O)c2cccc(C(F)(F)F)c2)CC1` [Compound 8, N-Cyclopropyl-N-[1-(pyridine-3-carbonyl)-piperidin-4-yl]-3-trifluoromethyl-benzenesulfonamide], the IC50 in assay [1] is 7.25 µM. Still for that read-out and setting: the same measure for `CC(C)N(C1CCN(C(=O)CN2CCCC(O)C2)CC1)S(=O)(=O)c1cccc(C(F)(F)F)c1` (stereo not drawn) [Compound 25b, N-{1-[2-(3-Hydroxy-piperidin-1-yl)-acetyl]-piperidin-4-yl}-N-isopropyl-3-trifluoromethylbenzenesulfonamide]: 3.35 µM. `O=C(c1ccccc1[N+](=O)[O-])N1CCC(N(C2CC2)S(=O)(=O)c2cccc(C(F)(F)F)c2)CC1` [Compound 10, N-Cyclopropyl-N-[1-(2-nitro-benzoyl)-piperidin-4-yl]-3-trifluoromethyl-benzenesulfonamide]: the IC50 in assay [2] was determined as 3.06 µM; in assay [1] it was 0.76 µM.

As to `Nc1ccccc1C(=O)N1CCC(N(C2CC2)S(=O)(=O)c2cccc(C(F)(F)F)c2)CC1` [Compound 11, N-[1-(2-Amino-benzoyl)-piperidin-4-yl]-N-cyclopropyl-3-trifluoromethyl-benzenesulfonamide], the values for the IC50 in assay [2] and in assay [1] were 10 to 20 µM and 0.68 µM, respectively. On the same counts, the results for `CC(C)N(C1CCN(C(=O)CN2CCCC(F)(F)C2)CC1)S(=O)(=O)c1cccc(C(F)(F)F)c1` [Compound 25e, N-{1-[2-(3,3-Difluoro-piperidin-1-yl)-acetyl]-piperidin-4-yl}-N-isopropyl-3-trifluoromethylbenzenesulfonamide] are over 20 µM and 0.88 µM. For `O=C(CCN1CCC(O)CC1)N1CCC(N(C2CC2)S(=O)(=O)c2cccc(C(F)(F)F)c2)CC1` [Compound 2, N-Cyclopropyl-N-{1-[3-(4-hydroxy-piperidin-1-yl)-propionyl]-piperidin-4-yl}-3-trifluoromethyl-benzenesulfonamide], in assay [1], the concentration for half-maximal inhibition (IC50) was 2.47 µM. Same read-out and setting: the value for `O=C(c1ccncc1)N1CCC(N(C2CC2)S(=O)(=O)c2cccc(C(F)(F)F)c2)CC1` [Compound 9, N-Cyclopropyl-N-[1-(pyridine-4-carbonyl)-piperidin-4-yl]-3-trifluoromethyl-benzenesulfonamide] was 8.68 µM. In the case of `O=C(c1ccccn1)N1CCC(N(C2CC2)S(=O)(=O)c2cccc(C(F)(F)F)c2)CC1` [Compound 7, N-Cyclopropyl-N-[1-(pyridine-2-carbonyl)-piperidin-4-yl]-3-trifluoromethyl-benzenesulfonamide], the IC50 in assay [1] was determined as 5.53 µM. For `N[C@@H]1CCC[C@@H]1C(=O)N1CCC(N(C2CC2)S(=O)(=O)c2cccc(C(F)(F)F)c2)CC1` (racemic) [Compound 5, rac-N-[1-((1S,2R)-2-Amino-cyclopentanecarbonyl)-piperidin-4-yl]-N-cyclopropyl-3-trifluoromethyl-benzenesulfonamide], the figures for the IC50 in assay [2] and in assay [1] were over 20 µM and 0.29 µM, respectively. With `O=C(CCN[C@H]1CC[C@H](O)CC1)N1CCC(N(C2CC2)S(=O)(=O)c2cccc(C(F)(F)F)c2)CC1` [Compound 3, N-Cyclopropyl-N-{1-[3-(4-hydroxy-cyclohexylamino)-propionyl]-piperidin-4-yl}-3-trifluoromethyl-benzenesulfonamide], the IC50 in assay [1] is 3.04 µM.

Turning to `CC(C)N(C1CCN(C(=O)[C@H]2CCC[C@H]2N)CC1)S(=O)(=O)c1cccc(C(F)(F)F)c1` (racemic) [rac-N-[1-((1S,2R)-2-amino-cyclopentanecarbonyl)-piperidin-4-yl}-N-isopropyl-3-trifluoromethylbenzenesulfonamide], the half-inhibitory concentration (IC50) in assay [1] was found to be 3.69 µM. `O=C(c1ccccc1NCCO)N1CCC(N(C2CC2)S(=O)(=O)c2cccc(C(F)(F)F)c2)CC1` [Compound 13, N-Cyclopropyl-N-{1-[2-(2-hydroxy-ethylamino)-benzoyl]-piperidin-4-yl}-3-trifluoromethyl-benzenesulfonamide]: the IC50 was over 20 µM in assay [2] and 0.33 µM in assay [1]. On the same counts, the results for `N[C@@H]1CCCC[C@@H]1C(=O)N1CCC(N(C2CC2)S(=O)(=O)c2cccc(C(F)(F)F)c2)CC1` (racemic) [Compound 4, rac-N-[1-((1S,2R)-2-Amino-cyclohexanecarbonyl)-piperidin-4-yl]-N-cyclopropyl-3-trifluoromethyl-benzenesulfonamide] are over 20 µM and 0.57 µM. For `O=C(c1ccc(=O)[nH]c1)N1CCC(N(C2CC2)S(=O)(=O)c2cccc(C(F)(F)F)c2)CC1` [Compound 6, N-Cyclopropyl-N-[1-(6-oxo-1,6-dihydro-pyridine-3-carbonyl)-piperidin-4-yl]-3-trifluoromethyl-benzenesulfonamide], the IC50 in assay [1] stood at 8.58 µM. As for `CC(C)N(C1CCN(C(=O)CNC2CCCCC2)CC1)S(=O)(=O)c1cccc(C(F)(F)F)c1` [Compound 25a, N-[1-(2-Cyclohexylamino-acetyl)-piperidin-4-yl]-N-isopropyl-3-trifluoromethylbenzenesulfonamide], the IC50 in assay [2] was 10 to 20 µM; in assay [1], 0.19 µM.
